Structure (SMILES)	melting point [°C]
COc1ccc(N2CCN(Cc3cnc(N)nc3N)CC2)cc1	239 to 241
CNC(=O)c1c(C(F)(F)F)nc(C(F)F)c(C(=O)OC)c1NC(C)C	128 to 130
O=C(c1ccc(Cl)cc1)c1ccc(NCC2CO2)cc1 (centres undefined)	128 to 129
CC(=NO)c1ccc2c(c1)C(=NNc1cccc(S(N)(=O)=O)c1C)C(=O)N2	> 250
OCC1=CCc2cc3ccccc3cc21	115 to 116
CCc1noc(-c2cn(-c3cccc(OCc4ccccc4)c3)cn2)n1	113 to 114
COc1ccc(C2CCc3cc(Br)ccc3O2)cc1 (centres undefined)	121 to 123
COc1ccc(CS(=O)(=O)c2cc3ccccc3oc2=O)cc1	194 to 195
O=C(CCCl)Nc1ccc2[nH]ncc2c1	158 to 160
O=C(Nc1ccncc1)c1cccc(-c2ccc3c(c2)C(Oc2ccc(Cl)cc2Cl)CC3)c1 (centres undefined)	226 to 227
Cc1c(C)c2c(c(C)c1NC(=O)CC(C)(C)C)C(c1ccc(F)cc1)C(C)(C)O2 (centres undefined)	194 to 195
O=C1NC(=O)c2c1cc1ccc3c(c1c2-c1cccnc1)OCO3	323 to 325
CN(C)C(=O)C(C)(C)CCCCC(=O)CCCCC(C)(C)C(=O)O	91.5 to 93.5
CN1C(C(=O)Nc2ccccn2)=C(OC2OC(=O)c3ccccc32)c2ccccc2S1(=O)=O (centres undefined)	151 to 152
OC1(c2ccc(C3OCCO3)cc2)CCCCC1	95 to 97
Cc1ncc(Cl)c(C(=O)Nc2ccn3cc(-c4ccccc4)nc3n2)n1	> 250
NC(=NCC(F)(F)F)Nc1ccnc(CCCCc2nc(O)n[nH]2)n1	209 to 210
COc1cc(N2CCN(Cc3ccc(CNC(C)=O)cc3)CC2)nc(OC)n1	89 to 90
N=C(N)NC(=O)Cn1c(C(=O)c2ccccc2)ccc1-c1ccccc1	201 to 203
CCC(CC)(CC(=O)Nc1cccc(/C=C/c2nc(C3CCCC3)cs2)c1)C(=O)O	172 to 174
COc1ccc2c(c1CC=C(C)C)OC(c1ccc(O)cc1O)CC2 (centres undefined)	95 to 96
N#CSc1cnn(-c2c(Cl)cc(C(F)(F)F)cc2Cl)c1N	137
CC(C)(CNC(=O)/C(CCO)=C(\c1ccc(Cl)cc1)c1ccc(S(C)(=O)=O)cc1)SN=O	150 to 153
Cc1ccc(N2N=C3c4cc(CCO)sc4CCC3CC2=O)cc1 (centres undefined)	159 to 160
N#CCCNC(=O)c1cccc(-c2ccc3ccn(Cc4ccc(Cl)cc4Cl)c3n2)c1	186 to 187

Structure (SMILES)	melting point [°C]
CC(=O)Nc1ccc(C=CC2CSC(=O)NN2)cc1 (centres undefined)	235 to 240
CC(C)CCN1N=C(c2ccc(F)cc2)c2cc(F)ccc2CS1(=O)=O	130 to 133
COc1cc2nc(N3CCN(c4nc5ccccc5[nH]4)CC3)nc(N)c2cc1OC	> 250
COc1ccc(N=C(C)c2ccccc2)cc1	81 to 82
Cc1nc2ccccc2c(=O)n1-c1ccccc1C#N	165 to 166
CCCCc1nc2ccc([C@H]3C[C@H](CO)ON3C)cc2c(=O)n1Cc1ccc(-c2ccccc2-c2nnn[nH]2)cc1 (relative stereo)	110
CCOC(=O)c1nc(-c2ccc(OC)cc2)sc1C	65 to 66
CC=CCCCn1cnc2c1c(=O)n(C)c(=O)n2C	58 to 64
COc1cccc(S(N)(=O)=O)c1C	193
CCOC(=O)Cc1c(C)n(-c2ncnc3cc(Cl)ccc23)c2ccc(OC)cc12	103 to 105
CC1=Nc2ccc(F)c(F)c2OC1	51.2
CC(C)(C)C(=O)Nc1ccc(Cl)cc1C1(O)CCN(C/C=C/c2ccc(Cl)cc2)CC1	177 to 179
CC(C)c1nc(CN)n(C)c1Sc1cc(Cl)cc(Cl)c1	86 to 87
CCOC(=O)c1ccc(COc2cccc3nc(C(=O)NCc4cccc(OC)c4)[nH]c(=O)c23)cc1	205 to 207
CC(C)(Oc1ccc(C(=O)c2ccc(Cl)cc2)cc1)C(=O)NCC(=O)O	144 to 146
O=c1cc(C(F)(F)F)cnn1-c1c(F)cc(Cl)c(O)c1[N+](=O)[O-]	146 to 148
N#CC1=C(Nc2ccc(F)cc2)c2ccccc2CC1	151 to 153
CCCC12CCC(=O)C=C1c1c(cc(CC(=O)O)c(Cl)c1Cl)O2 (centres undefined)	248 to 250
CC(C)Cn1nc(OCCCc2ccc(OC(C)C)cc2Oc2ncc(C(F)(F)F)cc2Cl)cc1CCC(=O)O	71 to 73
Cc1ccc(C(=O)n2nc(Nc3ccc(O)cc3)nc2N)cc1	221 to 223
N#Cc1ccccc1OC[C@H]1CO1	84 to 86
O=C(C=Cc1ccccc1)N1CCc2c([nH]c3ccccc23)C1c1ccc2c(c1)CCC2 (centres undefined)	223
CCCN1C(=O)N2C(=NCC2c2ccccc2)c2[nH]cnc21 (centres undefined)	258 to 264
O=C(c1ccccc1)C(Cc1ccccc1)C(=O)c1ccccc1	102 to 103
COC(=O)CCC#Cc1ccccc1[N+](=O)[O-]	44 to 46

Structure (SMILES)	melting point [°C]
COCCOc1ccc(N=Nc2c(C#N)[nH]n(-c3ccccc3)c2=O)cc1S(=O)(=O)O	263 to 265
CC1(C)CCc2c(ccc3c2C(=O)C(Br)=C(O)C3=O)O1	213 to 216
CCCCCCCCOC(=O)Oc1ccc(-c2ccc(C#N)cc2)cc1	51.6
CNC(=O)CCc1nc(-c2ccc(Cl)cc2)co1	169 to 170
COc1ccccc1Cc1ccc2nc(N)nc(N)c2c1	214 to 215
O=C1CC(=O)CC(c2ccc(Cl)cc2Cl)C1	192 to 196
Cc1oc(-c2ccc3ccccc3c2)nc1COc1ccc(/C=C/CO)cc1	159 to 160
O[C@@H]1CNC[C@H]1Oc1cccc2ccccc12 (relative stereo)	112 to 115
CC(=CC(=O)O)c1ccc2[nH]cc(-c3cc(C(C)(C)C)cc(C(C)(C)C)c3OCC(F)F)c2c1	135 to 145
CON=C(C)c1ccc(Nc2nc3ccccc3c3occc23)cc1	222 to 223
COC(=O)CCCS(=O)(=O)c1c(Cc2cccc3ccccc23)sc2c1c(=O)n(C)c(=O)n2CC(C)C	122 to 124
CCNC(=O)Nc1c(C(=O)c2ccccc2)[nH]c2cc(Cl)ccc12	222 to 235
Cc1ncc(C(=O)NCc2cc(C(F)(F)F)cc(C(F)(F)F)c2)c(-c2ccccc2Br)n1	138
COc1cc(CO[Si](C(C)C)(C(C)C)C(C)C)ccc1OCc1nc(-c2cccc(-c3nnn[nH]3)c2)oc1C	152 to 153
CSc1ccc(C(=O)O)cc1OC1CCCC1	158 to 160
CCn1cc2c(n1)c(N)nc1cc(O)ccc12	214 to 215
CCCc1nc2ccccc2c(=O)n1Cc1ccc(-c2ccccc2-c2nc(=O)o[nH]2)cc1	251 to 253
Oc1ccc(-c2ccc3cc(O)nc-3o2)cc1	> 300
CC(C)[C@H](NC(=O)NCc1cccnc1)C(=O)NC(Cc1ccccc1)C(O)C(Cc1ccccc1)NC(=O)[C@@H](NC(=O)OCc1ccccc1)C(C)C (some centres undefined)	205 to 206
CC(C)NC(=O)C(Cl)Cl	45 to 48
NNc1nncc(-c2cccc(Cl)c2)n1	163 to 166
CCCNC(=O)c1ccc(-c2ccc3nnn(Cc4ccc5ncccc5c4)c3n2)cc1Cl	128 to 130
Oc1cccc(CN2CCCCC2c2nc(-c3ccccc3)c(-c3ccccc3)o2)c1 (centres undefined)	205 to 208
Cc1n[nH]c2cc(F)c(C3C(C#N)=C(C(F)F)NC(C(F)F)=C3C#N)cc12	282
CC(=O)OC1CC2(C)C(=O)CCC2C2CC=C3CC(O)CCC3(C)C12 (centres undefined)	155 to 156

Structure (SMILES)	melting point [°C]
Cc1c(O)cc(O)c(C)c1C(=O)OCC(Cl)(Cl)Cl	132 to 133
C=CCn1c(C)nc2c3c(ccc21)[C@@H](OCCF)[C@H](O)[C@@H](c1ccccc1)O3	117
CCOC(=O)C1=C(C)Nc2ccnc(OC(C)C)c2C1c1ccccc1Cl (centres undefined)	135 to 136
O=C(O)c1nc(-c2ccccc2)n2c1CN=C(c1ccccc1F)c1cc(Cl)ccc1-2	267 to 269
O=C(c1ccc(F)cc1)C1CCN(CCCCn2c(=O)[nH]c3cscc3c2=O)CC1	190 to 192
CCN(CC)c1ccc(S(=O)(=O)N2CC(O)CC2=O)cc1 (centres undefined)	165
CCNC1CN(c2ccc(CCO[Si](c3ccccc3)(c3ccccc3)C(C)(C)C)cc2)S(=O)(=O)c2sc(S(N)(=O)=O)cc21 (centres undefined)	66
Nc1nc(NCCC23CC4CC(CC(C4)C2)C3)nc2c1ncn2C1OC(CO)C(O)C1O (centres undefined)	145 to 147
COc1cc2c(cc1OC)C(=O)CC(C)(C)O2	105 to 106
O=C(OC(=O)N(c1ccccc1)c1ccccc1)N(c1ccccc1)c1ccccc1	159 to 162
Cn1ncc(/C=C/C(=O)Nc2ccc(Cn3ccnc3)cc2)c1-c1ccc(F)cc1	213 to 214
C=C(CN(C)C)C(O)c1ncc2c(c1O)COC2(C)c1ccccc1 (centres undefined)	178 to 179
O=S(=O)(c1ccc(O)cc1)c1ccc(Cl)cc1	143 to 145
COc1ccc2sc(-c3ccc(OCCN4CCCC4)cc3)c(C(=O)c3ccc(OC4CCCCC4N4CCCCC4)cc3)c2c1 (centres undefined)	63 to 66
CCOC(=O)C1=C(C)NC(c2ncc[nH]2)=NC1c1ccc(F)cc1Cl (centres undefined)	157 to 162
COc1ccc(OCc2ccc(=O)n(Cc3ccc(Cl)cc3)c2)cc1	114
NC(=O)c1nc(-c2cccc(O)c2)nc2c1[nH]c(=O)n2C1CCCC1	360 to 361
CC1(O)CC(=O)OC(CCc2ccc(O)cc2)C1 (centres undefined)	135 to 137
Brc1ccc(N(Cc2ccccc2)c2ccccc2)cc1	97 to 98
O=C1C(=O)c2ccccc2C2=C1SCC1(CCN(CC(O)COc3ccccc3)CC1)O2 (centres undefined)	174 to 176
CCCn1nc2c(N)nc3ccccc3c2c1CCNC(=O)c1ccc(F)cc1	198 to 199
Fc1ccc2[nH]cc(C3=CCN(CC4CCc5ccc6ncccc6c5O4)CC3)c2c1 (centres undefined)	148
CN(C)CCCN(C)C(=O)c1cc([N+](=O)[O-])c[nH]1	118 to 120
CCc1ncn(Nc2cccc(C)c2)c1-c1ccccc1	158 to 160
